Laboratory results taken from patent publication US20060051374A1, “Compositions and methods for mucosal vaccination” (3M Innovative Properties Company, priority 2004, published 2006).

Tested on: OT-I cells
Assay: Total OT-I cell numbers in lymphoid tissues and percentage in nasal mucosa at Day 7 (Example 1)
Assay type: in vivo, C57BL/6 mice
Description: An Ovalbumin-IRM1 conjugate was prepared as follows. IRM1 was suspended in dimethyl sulfoxide (DMSO) to 10 mg/ml. Ovalbumin was suspended in phosphate buffered saline (PBS) to 10 mg/ml and the pH adjusted to >10.0 by the addition of NaOH. 500 μL of the ovalbumin solution (5 mg ovalbumin) was mixed with 100 μL of the IRM1 solution (1 mg IRM1) in a single well of a 12-well tissue culture plate. The plate was placed on ice and a long wavelength UV light source was placed directly over the plate as close to the well containing the IRM1/ovalbumin mixture as possible. The mixture was irradiated for 15 minutes. […]
Chicken Ovalbumin-specific CD8^+ T cells (OT-I, The Jackson Laboratories, Bar Harbor, Me.) were labeled with carboxyfluoroscein succinimidyl ester (CFSE, Molecular Probes, Inc., Eugene, Oreg.), a fluorescent dye that stains cells in a stabile manner, and then adoptively transferred into syngenic C57BL/6 mice (Charles River Laboratories, Wilmington, Mass.). […] Cells were then run on a FACSCaliber (Becton, Dickinson, and Co., San Jose, Calif.) and CD8^+SIINFEKL/K^b tetramer^+ T cells were analyzed for CFSE expression.
Separately, total OT-I cell numbers at Day 7 were counted in nasal associated lymphoid tissue (NALT), cervical lymph node (CLN), and spleen (Spl). […] Additionally, the percentage of OT-I cells in the nasal mucosa at determined at Day 7. […]

CCOCc1nc2c(N)nc3ccccc3c2n1CC(C)(C)NC(=O)CCCCCNC(=O)c1ccc(N=[N+]=[N-])cc1O [IRM1, N-[6-({2-[4-amino-2-(ethoxymethyl)-1H-imidazo[4,5-c]quinolin-1-yl]-1,1-dimethylethyl}amino)-6-oxohexyl]-4-azido-2-hydroxybenzamide]
total OT-I cell numbers, intranasal IRM1 plus antigen versus antigen alone (Ovalbumin-IRM1 conjugate intranasal, FIG. 2): greater total OT-I cell numbers at Day 7 than antigen alone
total OT-I cell numbers, intranasal versus intravenous delivery (Ovalbumin-IRM1 conjugate, NALT, CLN, spleen, FIG. 2A-2C): greater total OT-I cell numbers at Day 7 than intravenous delivery in all lymphoid tissues examined
